Key:
Format in all cases: cell-based, human
LNCaP-FGC cells [1] = assay: [3H] thymidine incorporation assay
Procedure: (§1) DU145 (1.5×10^5/well), PC-3 (1.0×10^5/well) and LNCaP-FGC (2.0×10^5/well) cells were seeded into 24-well plates 24 hours before serum-starvation. Cells were deprived of serum for 48 hours, followed by incubation with leptin at indicated concentrations or 100 ng/ml IL-6 for 20 hours. In some experiments, cells were pretreated with SP600125 prior to cytokine stimulation as described below. Cells in each well were pulsed with 1 μCi of [^3H] thymidine (Amersham Pharmacia Biotech Inc., Piscataway, N.J., USA) during the final 5 hours, washed once with PBS, fixed with cold 5% trichloroacetic acid, solubilized with 0.25 M NaOH, and counted in scintillant. Each experiment was performed in quadruplicate, and the values are reported as mean±SD.

DU145 cells [2] = assay: MTT assay (cell growth / viability); conditions: 5 days
Procedure: DU145 (1×10^3/well), PC-3 (1×10^3/well) and LNCaP-FGC (1.5×10^3/well) cells were seeded in 96-well plates 24 hours prior to serum starvation. Cells were starved of serum for 24 hours and then incubated in the serum-free medium with or without 12.5 μg/ml leptin for 5 days. 3-(4,5-dimethylthiazol-2-yl)-2,5-diphenyl tetrazolium bromide (MTT) was added to each well to a concentration of 0.5 mg/ml. After 3-hour incubation at 37° C., cells were lysed in 50% dimethylformamide and 20% SDS at 37° C. Optical densities (O.D.) at 550 nm and 670 nm were measured by a plate reader, and differential O.D. between 550 nm and 670 nm (O.D. 550 nm minus O.D. 670 nm) were determined. Each experiment was performed in quadruplicate, and the values are reported as mean±SD.
DU145 (0.5-1.0×10^3/well), PC-3 (0.5-1.0×10^3/well), and LNCaP FGC (0.75-1.5×10^3/well) cells were seeded in 96-well plates 24 hours prior to serum starvation. Cells were starved of serum for 24 hours and then incubated in the serum-free medium with or without cytokine(s), DHT and/or doxorubicin at indicated concentrations for 5 days. MTT was added to each well to a concentration of 0.5 mg/ml. After being incubated at 37° C. for 3 hours, cells were lysed in 50% dimethylformamide and 20% SDS at 37° C. Optical densities (OD) at 550 and 670 nm were measured by a plate reader, and differential OD between 550 and 670 nm (OD 550 minus OD 670 nm) were determined. Each experiment was performed in quadruplicate, and the values were reported as mean±S.D.
Sucrose gradients were set up in 2.2-ml centrifuge tubes (Beckman Coulter, Inc., Fullerton, Calif.) by layering 5, 10, 15 and 20% (w/v) sucrose in velocity sedimentation buffer (10 mM HEPES, pH 8; 125 mM NaCl). Gradients were then equilibrated overnight at 4° C. Twenty micrograms of f-adiponectin in 200 μl of velocity sedimentation buffer containing 5 μl of HMW-Native protein marker kit (GE Healthcare, Piscataway, N.J.) set to 0.5 μg/μl albumin was overlayed onto the sucrose gradients and spun in a Beckman TLS-55 rotor at 55,000 rpm for 5 hours at 4° C. Fractions (150 μl each) were sequentially collected from the top to the bottom; aliquots were removed and used immediately in the MTT assay. The remaining material was stored at −80° C. for Western blot analysis with anti-adiponectin antibody and SDS-PAGE with silver staining. For the MTT assay, DU145 cells (0.5×1 03/well) were serum-starved and incubated in triplicate in 60 μl of the serum-free medium plus 30 μl of each fraction. For Western blot analysis, 0.5 μl of each fraction was electrophoresed on a 10% SDS-polyacrylamide gel and electrotransferred to a polyvinylidene difluoride membrane. The membrane was washed, blocked, and hybridized with the anti-adiponectin antibody. Bands were visualized using a Lumiglo reagent (Cell Signaling Technology, Inc., Beverly, Mass.). For SDS-PAGE, 20 μl of each fraction was electrophoresed on a 10% SDS-polyacrylamide gel, followed by silver staining using the Silver Stain kit (Bio-Rad Laboratories, Inc., Hercules, Calif.) to visualize molecular weight markers.

DU145 cells [3] = assay: [3H] thymidine incorporation assay
Procedure: as §1
(§2) SP600125 was dissolved in DMSO to make a stock solution. Eighty-percent confluent prostate cancer cells were serum-starved for 24 hours and pretreated with SP600125 at indicated concentrations for 30 minutes, followed by leptin treatment (12.5 μg/ml): 15 minutes for Western blot analysis or 20 hours for thymidine incorporation assays. DMSO-treated cells were employed as controls.

PC-3 cells = assay: [3H] thymidine incorporation assay
Procedure: as §1, §2

LNCaP-FGC cells [4] = assay: Cell proliferation with leptin and DHT; conditions: only in the presence of DHT
STAT3 = assay: Electromobility shift assay (EMSA) of STAT3 DNA binding
Procedure: Seventy-percent confluent cells were deprived of serum for 24 hours, followed by treatment with 1 μg/ml f- or g-adiponectin or 10 μg/ml anisomycin for indicated periods. After being rinsed with cold phosphate-buffered saline, cells were harvested using a scraper and collected by centrifugation at 700×g for 10 minutes at 4° C. The cell pellets were then homogenized in cell lysis buffer (20 mM HEPES, pH 7.9, 300 mM NaCl, 1 mM Na3VO4, 1 μg/ml leupeptin, 5 μg/ml aprotinin, 1 μg/ml pepstatin, and 1 mM phenylmethylsulfonyl fluoride) and rocked gently for 30 minutes at 4° C. The homogenates were centrifuged at 15,000×g for 5 minutes at 4° C., and the supernatants were saved as cell lysates and stored at −80° C. until use.
The EMSA was performed as described previously (Y. Iwamoto, et al., J. Biol. Chem. 273:18198-18204, 1998). Cell lysates containing 10 μg of protein were subjected to the assay with ^32P-end-labeled, double-stranded oligonucleotide M67-SIE (forward: 5′[…]-3′ and reverse: 5′-[…]-3′) as a probe. The supershift assay was carried out to confirm the STAT3-DNA complex using anti-STAT3 antibody.

leptin: Recombinant human leptin purchased from R&D Systems; major adipose cytokine
cell proliferation on co-treatment with leptin and IGF-I (LNCaP-FGC cells [1]; 12.5 μg/ml leptin with 100 ng/ml IGF-I, 20 hours): did not influence
effect on the IL-6-induced inhibition of cell proliferation (LNCaP-FGC cells [1]; 12.5 μg/ml leptin with 100 ng/ml IL-6, 20 hours): did not influence
[3H] thymidine incorporation (cell proliferation), cytokine alone (LNCaP-FGC cells [1]; serum-deprived, leptin up to 12.5 μg/ml, IL-6 100 ng/ml or IGF-I 100 ng/ml, 20 hours): did not influence
cell growth (MTT), leptin together with IGF-I (DU145 cells [2]; 12.5 μg/ml leptin and 100 ng/ml IGF-I, absence of androgen): stimulated cell growth synergistically
living cells (MTT) (DU145 cells [2]; 12.5 μg/ml leptin, serum-free): increased living cells
[3H] thymidine incorporation (cell proliferation), cytokine alone (DU145 cells [3]; DU145, serum-deprived, leptin up to 12.5 μg/ml, IL-6 100 ng/ml or IGF-I 100 ng/ml, 20 hours): stimulated thymidine incorporation remarkably in a dose-dependent fashion
effect on the IGF-I stimulation of cell proliferation (DU145 cells [3]; DU145, 12.5 μg/ml leptin with 100 ng/ml IGF-I, 20 hours): drastic, synergistic effects
effect on the IL-6 stimulation of cell proliferation (DU145 cells [3]; DU145, 12.5 μg/ml leptin with 100 ng/ml IL-6, 20 hours): additive effects
[3H] thymidine incorporation (cell proliferation), cytokine alone (PC-3 cells; PC-3, serum-deprived, leptin up to 12.5 μg/ml, IL-6 100 ng/ml or IGF-I 100 ng/ml, 20 hours): stimulated thymidine incorporation remarkably in a dose-dependent fashion
effect on the IGF-I stimulation of cell proliferation (PC-3 cells; PC-3, 12.5 μg/ml leptin with 100 ng/ml IGF-I, 20 hours): drastic, synergistic effects
effect on the IL-6 stimulation of cell proliferation (PC-3 cells; PC-3, 12.5 μg/ml leptin with 100 ng/ml IL-6, 20 hours): additive effects
cell proliferation, leptin together with androgen (DHT) (LNCaP-FGC cells [4]): synergistically stimulate cell proliferation

B1: f-adiponectin: Recombinant human full-length (non-proteolytic) adiponectin, about 30-kDa polypeptide; lot mainly HMW form (protein, UniProt Q15848 1-244, looked up)
chain: MLLLGAVLLLLALPGHDQETTTQGPGVLLPLPKGACTGWMAGIPGHPGHNGAPGRDGRDGTPGEKGEKGDPGLIGPKGDIGETGVPGAEGPRGFPGIQGRKGEPGEGAYVYRSAFSVGLETYVTIPNMPIRFTKIFYNQQNHYDGSTGKFHCNIPGLYYFAYHITVYMKDVKVSLFKKDKAMLFTYDQYQENNVDQASGSVLLHLEVGDQVWLQVYGEGERNGLYADNDNDSTFTGFLLYHDTN
modifications: full-length
notes: Recombinant human full-length (non-proteolytic) adiponectin, about 30-kDa polypeptide; lot mainly HMW form
effect on the leptin and/or IGF-I stimulation of cell growth (MTT) (DU145 cells [2]; 1 μg/ml f-adiponectin, 12.5 μg/ml leptin and/or 100 ng/ml IGF-I): remarkably suppressed
effect on the conditioned medium stimulation of cell growth (MTT) (DU145 cells [2]; 1 μg/ml f-adiponectin): drastically suppressed
effect on the doxorubicin suppression of cell growth (MTT) (DU145 cells [2]; 1 μg/ml f-adiponectin): enhanced the doxorubicin suppression
cell growth (MTT) at concentrations up to 1 μg/ml (DU145 cells [2]; serum-free): inhibited cell growth in a dose-dependent manner
concentration at which the inhibitory effect on cell growth saturated (DU145 cells [2]; MTT): 1 µg/mL
constitutive STAT3 activation (STAT3 DNA binding activity) (STAT3; DU145 and HepG2 cells, 1.0 μg/ml, up to 60 minutes): inhibited constitutive STAT3 activation drastically
STAT3 activation (STAT3; the other cell lines (PC-3, LNCaP-FGC, C2C12), data not shown): Neither f- nor g-adiponectin influenced STAT3 activation
